Measured values from patent US4175081A, “5-Substituted thiadiazole ureas” (priority 1977, dated 1979).

What was measured:
[1] = system: Yellow foxtail grass (YF); test: Pre-emergence herbicide test; assay type: in vivo, Setaria glauca; conditions: Setaria, 336 h, two weeks after treatment; for pest or weed control at 8966.8 g/ha: 8 lb/acre
Procedure: Yellow foxtail grass (YF)--Setaria glauca
All crop and weed species were planted individually in 3' plastic pots containing potting soil. Four seeds each of corn, cotton, and snapbeans were seeded to a depth equal to the diameter of the seed. All other species were surface seeded and sprinkled with screened soil in an amount sufficient to cover the seed. Immediately after planting, all pots were watered by sub-irrigation in greenhouse trays. Pots for the pre-emergence phase were seeded one day before treatment.
Compounds were tested at rates of application equivalent to 8 lbs. of actual compound per acre in a spray volume of 38 gallons per acre. Spray hood constants required to deliver the above volume are as follows:
Formulations for spray applications were prepared in 50 ml volumes with the following three components:
Formulations for the 4 lbs/acre rate were prepared by adjusting the amount of active ingredient accordingly.
Spray applications were made in a hood containing a removable belt and fixed spray nozzle. For passage through the spray hood, one pot of each specie (pre-emergence phase) was placed on the rear half of the flat. Treatments were removed to the greenhouse after spraying. Watering during the observation period was done only by sub-irrigation.
Two weeks after treatment, pre- and post-emergence injury or control was visually rated, and the results were as shown in the following tables. Pre-emergence data are provided in TABLE III and post-emergence data are provided in TABLE IV, for compounds having the formula illustrated in TABLE I. Correspondingly, pre-emergence and post-emergence data, respectively, are set forth in TABLES V AND VI, for compounds having the formula illustrated in TABLE II.

Johnson grass (JG) [2] = test: Post-emergence herbicide test; assay type: in vivo, Sorgum helepense; conditions: Sorghum halepense, 336 h, two weeks after treatment; for pest or weed control at 8966.8 g/ha: 8 lb/acre
Outline: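 Visual injury or control scores taken 2 weeks after a post-emergence spray of pot-grown plants. Application was 8 lbs/acre (or 4 lbs/acre) in 38 gal/acre. Plants were held in the greenhouse with sub-irrigation only.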

Bean (BN) [3] = test: Pre-emergence herbicide test; assay type: in vivo, Phaseolus vulgaris var. Black Valentine; conditions: Phaseolus vulgaris, 336 h, two weeks after treatment; for pest or weed control at 8966.8 g/ha: 8 lb/acre
Outline: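 Visual injury/control ratings were taken two weeks post-spray on sub-irrigated Phaseolus vulgaris var. Black Valentine. Pots were sown a day before treatment. Pre-emergence spray delivered 8 lbs actual compound per acre (or 4 lbs/acre) at 38 gallons per acre.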

Crabgrass (CG) [4] = test: Pre-emergence herbicide test; assay type: in vivo, Digitaria sanquinalis; conditions: Digitaria sanguinalis, pre-emergence, 336 h, two weeks after treatment; for pest or weed control at 8966.8 g/ha: 8 lb/acre
Outline: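 Crabgrass (Digitaria sanquinalis) was surface seeded in 3' plastic pots of potting soil, covered with screened soil, and watered by sub-irrigation in greenhouse trays. Pots were seeded one day before spraying in a hood with a moving belt and fixed nozzle. Plants stayed in the greenhouse on sub-irrigation, and pre-emergence control was rated visually two weeks after treatment.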

Turnip (TP) [5] = test: Post-emergence herbicide test; assay type: in vivo, Brassica sp.; conditions: Brassica rapa, post-emergence, 336 h, two weeks after treatment; for pest or weed control at 8966.8 g/ha: 8 lb/acre
Outline: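 A greenhouse post-emergence herbicide test on turnip. Seeds were sown on the surface of potting soil in 3' plastic pots, lightly covered with screened soil and watered from below. Planting was timed so seedlings had 1 or 2 true leaves above the cotyledons at spraying, done in a hood with a fixed nozzle. Control or injury was scored by eye after two weeks.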

Cotton (CT) [6] = test: Pre-emergence herbicide test; assay type: in vivo, Gossypium hirsutum var. DPL smooth leaf; conditions: Gossypium hirsutum, 336 h, two weeks after treatment; for pest or weed control at 8966.8 g/ha: 8 lb/acre
Outline: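 Visual injury/control ratings were taken at two weeks post-spray. Pots seeded a day earlier received compound pre-emergence at 8 lbs/acre, or 4 lbs/acre, in a 38 gallon/acre spray volume, and were then held in the greenhouse, watered only from below.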

Corn (CN) [7] = test: Pre-emergence herbicide test; assay type: in vivo; conditions: Zea mays, 336 h, two weeks after treatment; for pest or weed control at 8966.8 g/ha: 8 lb/acre
Outline: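 Visual injury/control ratings were made 2 weeks post-spray on corn pots seeded (4 seeds, seed-diameter depth) the day before treatment. Application was a belt-hood spray of 38 gal/acre delivering 8 lbs active per acre, with a 4 lbs/acre rate also formulated. Watering was by sub-irrigation throughout.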

[8] = system: Yellow foxtail grass (YF); test: Post-emergence herbicide test; assay type: in vivo, Setaria glauca; conditions: Setaria, 336 h, two weeks after treatment; for pest or weed control at 8966.8 g/ha: 8 lb/acre
Outline: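 Visual rating of injury/control made 2 weeks post-spray. Seedlings at a uniform growth stage in soil-filled pots received a hood spray of 8 lbs/acre active compound, 38 gallons/acre volume, with a 4 lbs/acre rate also formulated. Watering was by sub-irrigation only.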

Crabgrass (CG) [9] = test: Post-emergence herbicide test; assay type: in vivo, Digitaria sanquinalis; conditions: Digitaria sanguinalis, post-emergence, 336 h, two weeks after treatment; for pest or weed control at 8966.8 g/ha: 8 lb/acre
Outline: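 Crabgrass (Digitaria sanquinalis) was surface seeded individually in 3' plastic pots of potting soil, covered with screened soil, and watered by sub-irrigation in greenhouse trays. Planting was staggered so seedlings reached the target stage together. Post-emergence sprays were applied in a hood with a removable belt and fixed nozzle, and control was visually rated two weeks after treatment.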

Barnyard grass (BG) [10] = test: Pre-emergence herbicide test; assay type: in vivo; conditions: Echinochloa crus-galli, 336 h, two weeks after treatment; for pest or weed control at 8966.8 g/ha: 8 lb/acre
Outline: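 Greenhouse pre-emergence spray test: pots seeded one day before treatment received compound at rates of 8 or 4 lb/acre (38 gal/acre). Visual injury/control scores for Echinochloa crus-galli taken at two weeks, with watering by sub-irrigation only.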

Corn (CN) [11] = test: Post-emergence herbicide test; assay type: in vivo; conditions: Zea mays, 336 h, two weeks after treatment; for pest or weed control at 8966.8 g/ha: 8 lb/acre
Outline: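 Greenhouse seedlings grown in potting soil and sprayed post-emergence at 8 lbs compound/acre (formulations also made for 4 lbs/acre) in 38 gallons/acre spray volume. Watering by sub-irrigation only. Injury or control rated visually two weeks after treatment.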

Johnson grass (JG) [12] = test: Pre-emergence herbicide test; assay type: in vivo, Sorgum helepense; conditions: Sorghum halepense, 336 h, two weeks after treatment; for pest or weed control at 8966.8 g/ha: 8 lb/acre
Outline: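 Visual injury or control rating two weeks post-treatment, after pre-emergence spray of 8 or 4 lbs active per acre (38 gal/acre) onto pots sown the previous day. Greenhouse watering by sub-irrigation only.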

Cotton (CT) [13] = test: Post-emergence herbicide test; assay type: in vivo, Gossypium hirsutum var. DPL smooth leaf; conditions: Gossypium hirsutum, post-emergence, 336 h, two weeks after treatment; for pest or weed control at 8966.8 g/ha: 8 lb/acre
Outline: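 This greenhouse post-emergence test measured how well spray treatments controlled cotton. Seedlings of Gossypium hirsutum var. DPL smooth leaf, with expanded cotyledons and a first true leaf 1' in length, were sprayed with 50 ml formulations in a belt-fed spray hood. They were then returned to the greenhouse and watered only by sub-irrigation. Injury was scored visually as % control after two weeks.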

Bean (BN) [14] = test: Post-emergence herbicide test; assay type: in vivo, Phaseolus vulgaris var. Black Valentine; conditions: Phaseolus vulgaris, post-emergence, 336 h, two weeks after treatment; for pest or weed control at 8966.8 g/ha: 8 lb/acre
Outline: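 Bean seedlings (Phaseolus vulgaris var. Black Valentine) were grown in potting soil in 3' pots until the primary leaves expanded. They were then sprayed under a hood with a removable belt and fixed nozzle, using 50 ml formulations. Afterward they were returned to the greenhouse and watered only by sub-irrigation. Percent control was judged visually two weeks after treatment.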

Turnip (TP) [15] = test: Pre-emergence herbicide test; assay type: in vivo, Brassica sp.; conditions: Brassica rapa, pre-emergence, 336 h, two weeks after treatment; for pest or weed control at 8966.8 g/ha: 8 lb/acre
Outline: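 In this pre-emergence greenhouse test, turnip was seeded on the surface of potting soil in 3' plastic pots, lightly covered with screened soil, and watered from below. One day later the pots were sprayed in a belt-fed spray hood. Watering continued only by sub-irrigation, and percent control was visually scored two weeks after treatment.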

Amaranth pigweed (PW) [16] = test: Pre-emergence herbicide test; assay type: in vivo, Amaranthus retroflexus; conditions: 336 h, two weeks after treatment; for pest or weed control at 8966.8 g/ha: 8 lb/acre
Outline: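 Visual injury or control ratings were made at two weeks on pre-emergence pots, sub-irrigated in the greenhouse. Seeds were sown a day before a hood spray delivering 8 lbs/acre (or 4 lbs/acre) of compound in 38 gallons per acre.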

Amaranth pigweed (PW) [17] = test: Post-emergence herbicide test; assay type: in vivo, Amaranthus retroflexus; conditions: 336 h, two weeks after treatment; for pest or weed control at 8966.8 g/ha: 8 lb/acre
Outline: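 Visual injury or control ratings were made two weeks after spraying, with greenhouse watering by sub-irrigation only. Treatment was post-emergence, when pigweed seedlings had 1 or 2 true leaves, at 8 lbs active compound per acre (4 lbs/acre formulations also made) in a 38 gallons-per-acre spray volume.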

Barnyard grass (BG) [18] = test: Post-emergence herbicide test; assay type: in vivo; conditions: Echinochloa crus-galli, 336 h, two weeks after treatment; for pest or weed control at 8966.8 g/ha: 8 lb/acre
Outline: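 Greenhouse pot-grown barnyard grass seedlings sprayed post-emergence at 8 lbs active compound per acre (some at 4 lbs/acre) in 38 gallons per acre, then sub-irrigated. Injury or control rated visually two weeks after treatment.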

Compound	pest or weed control at 8966.8 g/ha [1] [%]	pest or weed control at 8966.8 g/ha (Johnson grass (JG) [2]) [%]	pest or weed control at 8966.8 g/ha (Bean (BN) [3]) [%]	pest or weed control at 8966.8 g/ha (Crabgrass (CG) [4]) [%]	pest or weed control at 8966.8 g/ha (Turnip (TP) [5]) [%]	pest or weed control at 8966.8 g/ha (Cotton (CT) [6]) [%]	pest or weed control at 8966.8 g/ha (Corn (CN) [7]) [%]	pest or weed control at 8966.8 g/ha [8] [%]	pest or weed control at 8966.8 g/ha (Crabgrass (CG) [9]) [%]	pest or weed control at 8966.8 g/ha (Barnyard grass (BG) [10]) [%]	pest or weed control at 8966.8 g/ha (Corn (CN) [11]) [%]	pest or weed control at 8966.8 g/ha (Johnson grass (JG) [12]) [%]	pest or weed control at 8966.8 g/ha (Cotton (CT) [13]) [%]	pest or weed control at 8966.8 g/ha (Bean (BN) [14]) [%]	pest or weed control at 8966.8 g/ha (Turnip (TP) [15]) [%]	pest or weed control at 8966.8 g/ha (Amaranth pigweed (PW) [16]) [%]	pest or weed control at 8966.8 g/ha (Amaranth pigweed (PW) [17]) [%]	pest or weed control at 8966.8 g/ha (Barnyard grass (BG) [18]) [%]	also measured
CN(C)C(=O)N(C)c1nnc(C(F)(F)F)s1 [Example 4, 1,1,3-Trimethyl-3-[5-Trifluoromethyl-2-(1,3,4-Thiadiazolyl)] Urea]																			pest or weed control at 4483.4 g/ha ([1]; 4 lb/acre): 80%; pest or weed control at 4483.4 g/ha (Johnson grass (JG) [2]; 4 lb/acre): 40%; pest or weed control at 4483.4 g/ha (Bean (BN) [3]; 4 lb/acre): 90%; pest or weed control at 4483.4 g/ha (Crabgrass (CG) [4]; 4 lb/acre): 100%; pest or weed control at 4483.4 g/ha (Turnip (TP) [5]; 4 lb/acre): 100%; pest or weed control at 4483.4 g/ha (Cotton (CT) [6]; 4 lb/acre): 70%; pest or weed control at 4483.4 g/ha (Corn (CN) [7]; 4 lb/acre): 70%; pest or weed control at 4483.4 g/ha ([8]; 4 lb/acre): 90%; pest or weed control at 4483.4 g/ha (Crabgrass (CG) [9]; 4 lb/acre): 80%; pest or weed control at 4483.4 g/ha (Barnyard grass (BG) [10]; 4 lb/acre): 90%; pest or weed control at 4483.4 g/ha (Corn (CN) [11]; 4 lb/acre): 100%; pest or weed control at 4483.4 g/ha (Johnson grass (JG) [12]; 4 lb/acre): 40%; pest or weed control at 4483.4 g/ha (Cotton (CT) [13]; 4 lb/acre): 100%; pest or weed control at 4483.4 g/ha (Bean (BN) [14]; 4 lb/acre): 100%; pest or weed control at 4483.4 g/ha (Turnip (TP) [15]; 4 lb/acre): 100%; pest or weed control at 4483.4 g/ha (Amaranth pigweed (PW) [16]; 4 lb/acre): 100%; pest or weed control at 4483.4 g/ha (Amaranth pigweed (PW) [17]; 4 lb/acre): 100%; pest or weed control at 4483.4 g/ha (Barnyard grass (BG) [18]; 4 lb/acre): 60%
O=C(Nc1ccccc1)Nc1nnc(C(F)(F)F)s1 [Example 14]	10	20	100	10	10	50	50	10	10	10	50	20	50	100	10	90	90	10	
CCNC(=O)Nc1nnc(SC)s1 [Example 28]	30	20	80	40	50	40	10	20	20	50	20	20	70	50	0	30	30	20	
CCCNC(=O)Nc1nnc(SC)s1 [Example 29]	10	20	80	20	40	30	30	20	30	10	20	10	60	100	0	10	40	20	
